Laboratory results from US20050148661A1 (priority 2002, published 2005).

Legend:
[1] = system: potassium ion currents; test: current and voltage clamp on axon isolated from cockroaches (double oil separation technique); assay type: cell-based; conditions: applied externally; isolated cockroach axon
[2] = clinical cases 1 to 3: oxaliplatin cycles with or without calcium and magnesium infusion
[3] = system: calcium channels; test: electrophysiological study of the effect on calcium channels; assay type: cell-based, cockroaches
Procedure: An electrophysiological study was carried out in vitro by: • a) current and voltage clamp techniques on axon isolated from cockroaches with the double oil separation technique, • b) patch clamp techniques in whole cell configuration on DUM neurons (dorsal unpair median neuron) from cockroaches (DEA Laurence Gamelin, Etude de la neurotoxicité d'un dérivé du platine, l'oxaliplatine, par une approche électrophysiologique, Paris VII (1999)).
Indeed, BAPTA, a calcium chelator, gave an identical sodium channel inhibition curve. […] This blocking of the sodium channels causes abnormalities in the action potential of the neuron, that is to say neuronal depolarization disorders and potentially disturbances in the transmission of the impulse.

[4] = cited from earlier work
[5] = system: sodium ion currents; test: current and voltage clamp on axon isolated from cockroaches (double oil separation technique); assay type: cell-based; conditions: applied externally; isolated cockroach axon
[6] = after a cumulative dose of 750-850 mg/m^2; cited from earlier work
[7] = system: sodium channels; test: patch clamp in whole cell configuration on DUM neurons; assay type: cell-based, cockroaches
[8] = clinical study: prevention of the neurotoxicity of oxaliplatin by calcium and magnesium infusion (103 treatments)
[9] = oxalate and ions in plasma and urine of patients treated with oxaliplatin
[10] = case 3, C6, without calcium and magnesium
[11] = case 3, cycles C3, C4, C5, without calcium and magnesium
[12] = patients treated with oxaliplatin

N[C@@H]1CCCC[C@H]1N.O=C([O-])C(=O)[O-].[Pt+2] (relative stereo) [oxaliplatin, 1,2-diamine cyclohexane (trans-1)oxalatoplatinum]
modification in the potassium ion currents [1]: no significant modification | distal and perioral paresthesia ([2]; case 2, cycle 1, 5-FU, folinic acid + oxaliplatin 130 mg/m^2/21 days, no calcium and magnesium): grade 3 | diarrhea ([2]; case 2, cycle 1, no calcium and magnesium): grade 3 | neuropathy, NCI [2, 10]: grade 3 | neuropathy, specific scale [2, 10]: 3 | duration of the incapacitating neuropathy ([2]; case 3, after C6, without calcium and magnesium): 18 months | distal, perioral paresthesia, NCI ([2]; case 3, cycles 1 and 2, 5-FU, folinic acid + oxaliplatin 130 mg/m^2/3 weeks without calcium and magnesium): grade 2 | distal, perioral paresthesia, specific scale ([2]; case 3, cycles 1 and 2, without calcium and magnesium): grade 1 | neuropathy, NCI [2, 11]: grade 2 | neuropathy, specific scale [2, 11]: 2 | effect on the calcium channels [3]: no significant effect | share penetrating unchanged into the cell ([4]; FIG. 1): 70% | share of oxalate release / dichlorodachplatin formation carried out in the intracellular medium ([4]; first stage of metabolism): 70% | share of oxalate release / dichlorodachplatin formation carried out in the plasma medium ([4]; first stage of metabolism): 30% | modification in the sodium ion currents [5]: no significant modification | frequency of the grade 3 neuropathy [6]: 15-20% | amplitude of the action potential over time ([7]; current clamp, whole cell patch clamp, DUM neurons): reduction in the amplitude of the action potential over time | plateau of sodium current reduction (inhibition) ([7]; voltage clamp, DUM neurons): 60% | reduction in the sodium current ([7]; voltage clamp, over 10 minutes): 50% | total dose after which oxaliplatin can be reintroduced ([8]; after prolonged treatment, even with chronic persistent neuropathy, combined with infusion of calcium and magnesium): up to 780 mg/m^2 | patients with no neurological manifestation ([8]; cycle 6, in the absence of calcium and magnesium): 12% | discontinuations linked to progression of the disease ([8]; group of patients without calcium or magnesium): 44% | toxic causes for discontinuation: neuropathy ([8]; group without calcium and magnesium): 56% | oxalate in plasma (normally undetectable) [9, 12]: significant concentrations | plasma concentrations of calcium (total, ionized) and of magnesium (total and overall) [9, 12]: without any variation | calciuria, kaliuria and magnesuria ([9]; within 5 hours following the start of infusion): rise | urinary elimination of oxalate ([9]; within 5 hours following the start of infusion of oxaliplatin): substantial

O=C(O)CN(CC(=O)O)c1ccccc1OCCOc1ccccc1N(CC(=O)O)CC(=O)O [BAPTA]
sodium channel inhibition curve compared with oxaliplatin ([7]; calcium chelator tested): identical

NC1CCCCC1N.[Cl][Pt][Cl] (centres unmarked) [Dach platin, diaminecyclohexaneplatinum]
effect of other platinum salts (sodium channels) [7]: no effect

[Ca] [calcium]
reduction of risk of neurological manifestations at a distance from oxaliplatin administration ([8]; calcium by the oral route): effective

N.N.O=C([O-])C1(C(=O)[O-])CCC1.[Pt+2] [carboplatin]
effect of other platinum salts (sodium channels) [7]: no effect

N.N.[Cl][Pt][Cl] [cisplatin]
effect of other platinum salts (sodium channels) [7]: no effect
